Patent US20240207285A1 (Melt Pharmaceuticals, Inc., priority 2022, published 2024)

Tests used:
[1] = test system: subjects undergoing cataract extraction with lens replacement (CELR); assay: Phase 2 mean intraoperative analgesia by the numeric pain rating scale; type: in vivo, human
Procedure: An average of the available timepoints was also calculated.

[2] = test system: subjects undergoing cataract extraction with lens replacement (CELR); assay: Phase 2 subjects completing the surgery without interruption; type: in vivo, human; settings: Visit 2 (Day 1); Full Analysis Set
Procedure: (§1) The number of subjects achieving analgesia response (observed) in the full analysis set was determined. Success in analgesia response was defined as NPRS <4 at the available at the available four intraoperative timepoints and a failure otherwise (e.g., any interoperative pain rescue was assumed to be a failure. Results are provided in TABLE 24. The number of subjects completing the surgery is provided in TABLE 25, and the number of subjects completing the surgery without interruption is provided in TABLE 26. For this measure, subjects completing the surgery without interruption (other than rescue medication) due to pain or anxiety were considered successes. The number of subjects requiring rescue sedative medication and those requiring analgesic medication are provided in TABLES 27 and 28, respectively. For all TABLES 24-28, p-Values between pairs of treatments were calculated and are provided.

[3] = test system: subjects undergoing cataract extraction with lens replacement (CELR); assay: Phase 2 subject-rated worst pain during surgery by the numeric pain rating scale; type: in vivo, human; settings: carry forward
[4] = test system: subjects undergoing cataract extraction with lens replacement (CELR); assay: Phase 2 subjects wanting study drug again for a second surgery (11-point Likert scale); type: in vivo, human
Source text: Post-operation, subjects were asked whether they would want the study drug again for a second surgery using an 11-point Likert scale of 0 (not likely at all) to 10 (extremely likely).

[5] = test system: subjects undergoing cataract extraction with lens replacement (CELR); assay: Phase 2 treatment-emergent ocular adverse events (study eye, non-study eye, either eye); settings: for Eye disorders, % / General disorders and administration site conditions, % / Infections and infestations, % / Injury, poisoning and procedural complications, % / Investigations, %: system organ class
Procedure: (§2) The Phase 2 study was factorial-designed, randomized, double-blind, placebo-controlled, and included parallel-cohorts. […] Primary efficacy endpoints included appropriate sedation during the cataract surgery and management of intraoperative pain during the surgery.
The study eye (TABLE 31) non-study eye (TABLE 32), or either eye (TABLE 33) was assessed. TEAES were defined as events that started on or after the date of the study drug administration through the end of Visit 4 or early withdrawal. Subjects with one or more adverse event within a level of Medical Dictionary for Regulatory Activities (MedDRA) were counted only once in that level.

[6] = test system: subjects undergoing cataract extraction with lens replacement (CELR); assay: Phase 2 subjects completing the surgery; type: in vivo, human; settings: Visit 2 (Day 1); Full Analysis Set
Procedure: as §1

[7] = test system: subjects undergoing cataract extraction with lens replacement (CELR); assay: Phase 2 subjects achieving analgesia response (NPRS <4); type: in vivo, human; settings: Visit 2 (Day 1), observed
Procedure: as §1

[8] = test system: subjects undergoing cataract extraction with lens replacement (CELR); assay: Phase 2 subjects requiring rescue analgesic medication; type: in vivo, human; settings: Visit 2 (Day 1); Full Analysis Set
Procedure: as §1

[9] = test system: subjects undergoing cataract extraction with lens replacement (CELR); assay: Phase 2 subjects achieving procedural sedation (RSS 2 or 3 without rescue); type: in vivo, human; settings: Visit 2 (Day 1), Full Analysis Set
Procedure: A Phase 2 efficacy and safety study of the MELT-300 formulation was conducted at nine sites with over 300 enrolled subjects. MELT-300 is a sublingual, needle- and opioid-free formulation for procedural sedation during cataract surgery. […] MELT-300 utilizes fast-dissolving delivery technology (Zydis®, Catalent Inc.) to rapidly dissolve the tablet for absorption across the sublingual mucosa.
as §2
Achievement of procedural sedation was evaluated for each subject (see TABLE 19). Success for procedural sedation for this Phase 2 study was defined as achieving target sedation level (Ramsay Sedation Scale (RSS) scale level 2 or 3) at the start of surgery without the need for rescue sedation medication, and no need for intraoperative rescue sedation medication to maintain target sedation level.

[10] = test system: subjects undergoing cataract extraction with lens replacement (CELR); assay: Phase 2 subjects receiving opioid concomitant medication postoperatively; type: in vivo, human
[11] = test system: subjects undergoing cataract extraction with lens replacement (CELR); assay: Phase 2 subjects requiring rescue sedative medication; type: in vivo, human; settings: Visit 2 (Day 1)
Procedure: as §1

[12] = Average of available timepoints, adjusted for site table, carry forward
[13] = Average of available timepoints, carry forward
[14] = Average of available timepoints, observed
[15] = Corneal incision, adjusted for site table, carry forward
[16] = Corneal incision, carry forward
[17] = Insertion of the phacoemulsion probe, adjusted for site table, carry forward
[18] = Insertion of the phacoemulsion probe, carry forward
[19] = Insertion of the phacoemulsion probe, observed
[20] = Insertion of the speculum, adjusted for site table, carry forward
[21] = Insertion of the speculum, carry forward
[22] = Insertion of the speculum, observed
[23] = Insertion of the synthetic replacement lens, adjusted for site table, carry forward
[24] = Insertion of the synthetic replacement lens, carry forward
[25] = Insertion of the synthetic replacement lens, observed
[26] = adjusted for site, carry forward
[27] = carry forward, repeated measures model
[28] = observed, repeated measures model
[29] = 11-point Likert scale 0 (not likely at all) to 10 (extremely likely)

Cc1ncc2n1-c1ccc(Cl)cc1C(c1ccccc1F)=NC2 [Midazolam 3 mg]
Intraoperative NPRS, LS Mean ([1]; Average of available timepoints, adjusted for site (study center covariate), carry forward): 2.12
Intraoperative NPRS, mean [1, 12]: 2.37
Intraoperative NPRS, median [1, 12]: 2.00
Intraoperative NPRS, mean [1, 13]: 2.37
Intraoperative NPRS, median [1, 13]: 2.00
Intraoperative NPRS, LS Mean ([1]; Average of available timepoints, carry forward, repeated measures model): 2.37
Intraoperative NPRS, mean [1, 14]: 2.18
Intraoperative NPRS, median [1, 14]: 2.00
Intraoperative NPRS, LS Mean ([1]; Average of available timepoints, observed, repeated measures model): 2.46
Intraoperative NPRS, mean [1, 15]: 1.8
Intraoperative NPRS, median [1, 15]: 1.0
Intraoperative NPRS, mean [1, 16]: 1.8
Intraoperative NPRS, median [1, 16]: 1.0
Intraoperative NPRS, mean ([1]; Corneal incision, observed): 1.8
Intraoperative NPRS, median ([1]; Corneal incision, observed): 1.0
Intraoperative NPRS, mean [1, 17]: 2.9
Intraoperative NPRS, median [1, 17]: 3.0
Intraoperative NPRS, mean [1, 18]: 2.9
Intraoperative NPRS, median [1, 18]: 3.0
Intraoperative NPRS, mean [1, 19]: 2.5
Intraoperative NPRS, median [1, 19]: 2.0
Intraoperative NPRS, mean [1, 20]: 1.1
Intraoperative NPRS, median [1, 20]: 0.0
Intraoperative NPRS, mean [1, 21]: 1.1
Intraoperative NPRS, median [1, 21]: 0.0
Intraoperative NPRS, mean [1, 22]: 1.1
Intraoperative NPRS, median [1, 22]: 0.0
Intraoperative NPRS, mean [1, 23]: 3.6
Intraoperative NPRS, median [1, 23]: 4.0
Intraoperative NPRS, mean [1, 24]: 3.6
Intraoperative NPRS, median [1, 24]: 4.0
Intraoperative NPRS, mean [1, 25]: 2.9
Intraoperative NPRS, median [1, 25]: 3.0
Intraoperative NPRS, LS Mean Difference versus ketamine [1, 26]: 0.22
Intraoperative NPRS, LS Mean Difference versus placebo [1, 26]: −0.08
Intraoperative NPRS, LS Mean Difference versus ketamine [1, 27]: 0.20
Intraoperative NPRS, LS Mean Difference versus placebo [1, 27]: −0.12
Intraoperative NPRS, LS Mean Difference versus ketamine [1, 28]: 0.24
Intraoperative NPRS, LS Mean Difference versus placebo [1, 28]: −0.01
Subjects completing the surgery without interruption: No, % [2]: (0) %
Subjects completing the surgery without interruption: Yes, % [2]: (100.0) %
Worst Pain During Surgery, Mean Difference versus ketamine [3]: 0.38
Worst Pain During Surgery, Mean Difference versus placebo [3]: 0.05
Worst Pain During Surgery (NPRS), mean ([3]; Full Analysis Set): 4.0
Worst Pain During Surgery (NPRS), median ([3]; Full Analysis Set): 4.0
Want Study Drug Again, mean [4, 29]: 8.4
Want Study Drug Again, median [4, 29]: 10.0
Want Study Drug Again, Mean Difference versus ketamine ([4]; unpaired t-test): 0.80
Want Study Drug Again, Mean Difference versus placebo ([4]; unpaired t-test): 0.75
Cataract operation complication, % ([5]; Either Eye): (0) %
Conjunctivitis bacterial, % ([5]; Either Eye): (0) %
Corneal abrasion, % ([5]; Either Eye): (0) %
Corneal oedema, % ([5]; Either Eye): (0) %
Endophthalmitis, % ([5]; Either Eye): (0) %
Eye pain, % ([5]; Either Eye): (3.4) %
Foreign body sensation in eyes, % ([5]; Either Eye): (0) %
Intraocular pressure increased, % ([5]; Either Eye): (2.3) %
Ocular hypertension, % ([5]; Either Eye): (1.1) %
Pain, % ([5]; Either Eye): (0) %
Paracentesis eye, % ([5]; Either Eye): (0) %
Procedural pain, % ([5]; Either Eye): (1.1) %
Subjects with Any Treatment-Emergent Ocular AEs, % ([5]; Either Eye): (9.2) %
Vision blurred, % ([5]; Either Eye): (1.1) %
Eye disorders, % ([5]; Either Eye): (5.7) %
General disorders and administration site conditions, % ([5]; Either Eye): (0) %
Infections and infestations, % ([5]; Either Eye): (0) %
Injury, poisoning and procedural complications, % ([5]; Either Eye): (1.1) %
Investigations, % ([5]; Either Eye): (2.3) %
Conjunctivitis bacterial, % ([5]; Non-Study Eye): (0) %
Eye pain, % ([5]; Non-Study Eye): (0) %
Subjects with Any Treatment-Emergent Ocular AEs, % ([5]; Non-Study Eye): (1.1) %
Vision blurred, % ([5]; Non-Study Eye): (1.1) %
Eye disorders, % ([5]; Non-Study Eye): (1.1) %
Infections and infestations, % ([5]; Non-Study Eye): (0) %
Cataract operation complication, % ([5]; Study Eye): (0) %
Corneal abrasion, % ([5]; Study Eye): (0) %
Corneal oedema, % ([5]; Study Eye): (0) %
Endophthalmitis, % ([5]; Study Eye): (0) %
Eye pain, % ([5]; Study Eye): (3.4) %
Foreign body sensation in eyes, % ([5]; Study Eye): (0) %
Intraocular pressure increased, % ([5]; Study Eye): (2.3) %
Ocular hypertension, % ([5]; Study Eye): (1.1) %
Pain, % ([5]; Study Eye): (0) %
Procedural pain, % ([5]; Study Eye): (1.1) %
Subjects with Any Treatment-Emergent Ocular AEs, % ([5]; Study Eye): (8.0) %
Eye disorders, % ([5]; Study Eye): (4.6) %
General disorders and administration site conditions, % ([5]; Study Eye): (0) %
Infections and infestations, % ([5]; Study Eye): (0) %
Injury, poisoning and procedural complications, % ([5]; Study Eye): (1.1) %
Investigations, % ([5]; Study Eye): (2.3) %
Paracentesis eye, % ([5]; printed in the Non-Study Eye table): (0) %
Subjects completing the surgery: No, % [6]: 0 (0) %
Subjects completing the surgery: Yes, % [6]: 100.0%
Subjects achieving analgesia response: Yes, % ([7]; NPRS <4 at four intraoperative timepoints): 40.7%
Subjects achieving analgesia response: No, % [7]: 59.3%
Subjects requiring rescue analgesic medication: No, % [8]: (56.8) %
Subjects requiring rescue analgesic medication: Yes, % [8]: (43.2) %
Subjects achieving procedural sedation: No, % [9]: 35.8%
Subjects achieving procedural sedation: Yes, % ([9]; RSS 2 or 3 without rescue sedation): 64.2%
Received Postoperative Opioid on Day 2: No, % ([10]; Day 2): (100.0) %
Received Postoperative Opioid on Day 2: Yes, % ([10]; Day 2): (0.0) %
Received Postoperative Opioid on Day 2-8: No, % ([10]; Day 2-8): (100.0) %
Received Postoperative Opioid on Day 2-8: Yes, % ([10]; Day 2-8): (0.0) %
Subjects requiring rescue sedative medication: No, % ([11]; Full Analysis Set): (65.4) %
Subjects requiring rescue sedative medication: Yes, % ([11]; Full Analysis Set): (34.6) %
Subjects requiring rescue sedative medication: Intraoperatively, % ([11]; Intraoperatively): (8.6) %
Subjects requiring rescue sedative medication: Pre-operatively, % ([11]; Pre-operatively): (25.9) %
